Experimental data reported in publication PMC9841589, “Identification of 2-Aminoacyl-1,3,4-thiadiazoles as Prostaglandin E2 and Leukotriene Biosynthesis Inhibitors” (ACS Medicinal Chemistry Letters, 2022).

How the values were obtained:
[1] = molecular target: T1, mPGES-1 (Homo sapiens, UniProt O14684); assay: Cell-free mPGES-1 activity assay (PGE2 biosynthesis); assay type: biochemical; conditions: for remaining activity at 10 µM: percentage of control (100%), read-out: mPGES-1 residual activity at 10 μM (%); for IC50: n = 3, read-out: IC50 value ± SEM (mPGES-1, cell-free)
T1 construct: endogenous in cells; host or cells: A549 cells stimulated with IL-1β; microsomal fraction
T1 sequence (O14684 1-152): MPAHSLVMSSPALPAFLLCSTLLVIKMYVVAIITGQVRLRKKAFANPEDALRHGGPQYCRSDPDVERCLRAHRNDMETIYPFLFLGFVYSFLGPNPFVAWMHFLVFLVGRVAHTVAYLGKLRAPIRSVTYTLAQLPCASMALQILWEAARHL
From the text: (Table 1). […] From the structural point of view, the biological affinities of compounds 3 and 7 (Figure 2A and C) could be positively affected by the 2-bromobenzoyl substituent able to accommodate in a deep binding pocket on the mPGES-1 surface. This moiety interacts by van der Waals contacts with amino acids of the cytoplasmic part and establishes π-stacking with Phe44ChainC and His53ChainC hydrogen bonds with Ser127, and a halogen bond between the bromine atom and the side chain of Aps49ChainC. Furthermore, the 3-phenylphenol and 2-aminobiphenyl moieties of 3 and 7 (Figure 2A and C), respectively, are able to establish a peculiar π-stacking with Tyr130ChainA and a hydrogen bond with Gln134ChainA. […]
mM glutathione, and 250 mM sucrose) and the protein concentration was defined. Potassium phosphate buffer (0.1 M, pH = 7.4) plus glutathione (2.5 mM) was added to dilute microsomes, which were then seeded in a 96-well plate. […]
preincubated for 15 min on ice. MK886 (10 µM) and MD-52 (1 µM) were used as reference drugs.
The reactions started by adding 20 µM of PGH2, and 1 min later, 100 µl of a solution containing FeCl3 (40 mM), citric acid (80 mM), and 11β-PGE 2 (10 µM) were added for stopping the conversion of PGH2. After the extraction of PGE2 and 11β-PGE 2 (internal stardard) by solid-phase extraction, […]

[2] = molecular target: T2, COX-2 (Homo sapiens, UniProt P35354); assay: Cell-free COXs activity assay, COX-2; assay type: biochemical; conditions: percentage of uninhibited control (100%), n = 3, n.i.: no inhibitory activity observed, read-out: COX-2 residual activity (%)
T2 sequence (P35354 18-604): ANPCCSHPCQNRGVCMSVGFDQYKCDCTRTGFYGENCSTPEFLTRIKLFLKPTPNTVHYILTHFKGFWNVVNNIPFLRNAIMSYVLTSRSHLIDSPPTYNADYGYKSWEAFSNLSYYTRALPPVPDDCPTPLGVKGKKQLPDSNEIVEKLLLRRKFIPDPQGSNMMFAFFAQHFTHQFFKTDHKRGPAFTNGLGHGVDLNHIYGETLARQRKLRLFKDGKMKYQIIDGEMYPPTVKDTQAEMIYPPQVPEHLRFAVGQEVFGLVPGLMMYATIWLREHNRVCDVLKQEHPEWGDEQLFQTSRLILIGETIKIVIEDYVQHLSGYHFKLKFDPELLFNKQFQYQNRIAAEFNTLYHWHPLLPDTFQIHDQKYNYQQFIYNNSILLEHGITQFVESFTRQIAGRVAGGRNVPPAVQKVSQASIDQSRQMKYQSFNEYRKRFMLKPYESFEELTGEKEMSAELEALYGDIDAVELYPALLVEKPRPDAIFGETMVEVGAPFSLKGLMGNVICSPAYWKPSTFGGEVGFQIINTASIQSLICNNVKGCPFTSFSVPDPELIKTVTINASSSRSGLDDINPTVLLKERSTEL
Protocol: Cell-free COXs activity assay
Isolated COX-1 (ovine) and COX-2 (human) were used for the evaluation of the activity of test compounds 3, 6, 7, and 9 on cyclooxygenases. COXs were diluted using Tris buffer (100 mM, pH = […]
8) plus 5 mM glutathione, 100 µM EDTA and 5 µM hemoglobin) to a final concentration of 50 U/mL for COX-1 and 20 U/mL for COX-2, and pre-incubated with test compounds 3, 6, 7, and 9 (10 µM) or vehicle (0.1% DMSO) over 5 min at rt. After 1 min at 37 °C, reactions were started after addition of arachidonic acid to a final concentration of 5 µM for COX-1 and 2 µM for COX-2. After 5 min at 37 °C, 1 mL of ice-cold methanol was added for stopping the reactions on ice. Then, PGB 1 as internal standard and 530 µl PBS plus HCl were added, and solid-phase extraction was performed as reported before.4-6, 17-19 COXs product formation (12-HHT) was determined using RP-HPLC. 4-6, 17-19 Indomethacin (10 µM) and celecoxib (5 µM) were used as reference drugs.
Expression, purification and activity assay of human recombinant sEH
Human recombinant sEH was expressed in Sf9 cells and was infected using a baculovirus, provided by Dr. B. Hammock, University of California, Davis, CA. After 72 hours, cells were pelleted and sonicated (3 × 10 sec) at 4 °C in lysis buffer (50 mM NaHPO 4, pH = 8, 300 mM NaCl, 10% glycerol, 1 mM EDTA, 1 mM phenylmethanesulfonyl fluoride, 10 µg/mL of leupeptin, and 60 µg/mL of soybean trypsin inhibitor). Lysates were centrifuged over 60 min at 4 °C (100,000 × g), and supernatants were collected and submitted to a benzylthio-sepharose-affinity chromatography for sEH purification by elution with 4-fluorochalcone oxide in PBS plus 1 mM DTT and 1 mM EDTA.720 […]
DMSO) for 15 min at rt. 50 µM 3-phenyl-cyano(6-methoxy-2-naphthalenyl)methyl ester-2-oxiraneacetic acid (PHOME), a non-fluorescent compound, was added for starting the reaction.
PHOME is enzymatically converted into a fluorescent compound, 6-methoxy-naphtaldehyde, detectable by using a spectrofluorometer setting λ em = 465 nm, λ ex = 330 nm. After 60 min, ZnSO 4

remaining activity at 10 µM [1] [%]	IC50 [1] [nM]	remaining activity at 10 µM [2] [%]	Compound
20.9	1700 ± 300	72.7	Nc1ccccc1-c1ccc(-c2nnc(NC(=O)c3c(Cl)ccnc3Cl)s2)cc1 [compound 9]
31.7	3100 ± 600	83.1	Cc1cc(C(=O)Nc2nnc(-c3ccc(-c4ccccc4N)cc3)s2)cc(Cl)n1 [compound 6]
16.7	150	194	Nc1ccccc1-c1ccc(-c2nnc(NC(=O)c3ccccc3Br)s2)cc1 [compound 7]
8.4	200	65.4	O=C(Nc1nnc(-c2ccc(-c3cccc(O)c3)cc2)s1)c1ccccc1Br [compound 3]
